{
  "source": "patent US20220378802A1",
  "about": "“TREATMENT OF ALCOHOLIC HEPATITIS” (Durect Corporation, priority 2019, published 2022)",
  "assay": "Pharmacokinetics of 25HC3S in alcoholic hepatitis patients (Phase 2a, IV infusion)",
  "type": "in vivo, human",
  "conditions": "for PK parameters, moderate versus severe AH groups: comparison at the same dose; for half-life / clearance / Tmax / AUC(0-inf) / Cmax: human, plasma",
  "experimental": "All patients received IV infused 25HC3S (at 30, 90, or 150 mg) on Day 1 and Day 4 (if still hospitalized), and were followed for 28-days. The final enrollment was 19 patients comprised of: 8 patients (4 moderate and 4 severe) dosed at 30 mg, 7 patients (3 moderate and 4 severe) dosed at 90 mg, and 4 patients (4 severe) dosed at 150 mg. • Study Drug A 25HC3S sodium salt solution contained: • 30 mg/mL 25HC3S sodium salt; • 240 mg/mL hydroxypropyl-beta-cyclodextrin; and • 50 mmole phosphate buffer • The 25HC3S sodium salt solution was diluted in 100 mL 5% dextrose or 0.9% sodium chloride infusion solution: • Dose 1: 30 mg of 25HC3S sodium salt in 100 mL 5% dextrose or 0.9% sodium chloride • Dose 2: 90 mg of 25HC3S sodium salt in 100 mL 5% dextrose or 0.9% sodium chloride • Dose 3: 150 mg of 25HC3S sodium salt in 100 mL 5% dextrose or 0.9% sodium chloride • 25HC3S sodium salt was administered by slow intravenous infusion over 2 hrs (50 mL/h) until the entire dose is given at Day 1 and Day 4. If a patient met the hospital discharge criteria prior to the second dose, the patient received only one dose instead of two doses. • Study Procedure The study was conducted in two parts. Part A included patients with MELD scores of 11-20 (moderate AH patients), and Part B included patients with MELD of scores 21-30. The doses of 25HC3S sodium salt administered were 30 mg and 90 mg for Part A and 30 mg, 90 mg and 150 mg for Part B, with 4 patients per dose group per Part (except for only 3 patients in the 90 mg cohort of Part A). All patients were followed to Day 28. • The study started in 4 moderate AH patients (Part A) at 30 mg dose level. After completing the dosing, a Dose Escalation Committee (DEC) reviewed safety, tolerability and pharmacokinetic (PK) data from all 4 patients and determined that it was safe to move forward to dose 4 severe AH patients (Part B) at the same dose level, 30 mg, as well as escalating the dose level to 90 mg in moderate patients (Part A). The same dose escalation procedure was then conducted in Part B until all 4 patients received 150 mg doses. • A flow diagram of the study is depicted in FIG. 2. Each dose cohort enrolled up to 4 subjects. Study subjects received up to 2 doses of 25HC3S sodium salt. The first dose was administered on Day 1 and, if still hospitalized, the second dose was administered on Day 4. A pharmacokinetic (PK) sample was collected at: Time 0 (pre-dose), 1 hour post-dose initiation, 2 hours (end of infusion), 3 hours post-dose initiation, 4 hours post-dose initiation, 8 hours post-dose initiation, 12 hours post-dose initiation, 24-hours post-dose initiation and 50 hours post-dose initiation. • Evaluation: Assessment of Pharmacodynamic (PD) Signals: • Change in Lille score, MELD score, biochemistry (such as bilirubin) • Method and Timing • Lille score was calculated at Day 7 • MELD score was calculated at Screening, Day 1 (pre-dose), Day 7 and Day 28 • Biochemistry and all safety lab parameters were collected at Screening, Day 1 and Day 4 at pre-dose, Day 1 and Day 4 at 12 hrs after dose completion/end of infusion, Day 2, Day 7, Day 28, and if hospitalized on Days 3, 4, 5, and 6. • Assessment of Safety Signals: • Safety was determined based on clinical and laboratory monitoring. • Assessment of PK: • Plasma concentration data of 25HC3S from each patient were used to calculate relevant PK parameters determined using a standard linear/log-trapezoidal rule non-compartmental method with an appropriate PK data analysis program. • The time points for PK sample collection were (after Dose 1 only): 0 (pre-dose), 1 hr post-dose initiation, 2 hrs (end of infusion), 3, 4, 8, 12, 24 hrs post-dose",
  "key": {"[1]": {"conditions": "AH vs healthy subjects, 150 mg, ↑"}, "[2]": {"conditions": "AH vs healthy subjects, 150 mg, ↓"}, "[3]": {"conditions": "iv, 30 mg, Moderate AH, cohort 1A, 30 mg IV infusion, N=3"}, "[4]": {"conditions": "iv, 30 mg, Severe AH, cohort 1B, 30 mg IV infusion, N=4"}, "[5]": {"conditions": "iv, 90 mg, Moderate AH, cohort 2A, 90 mg IV infusion, N=3"}, "[6]": {"conditions": "iv, 90 mg, Severe AH, cohort 2B, 90 mg IV infusion, N=4"}, "[7]": {"conditions": "iv, 150 mg, Severe AH, cohort 3B, 150 mg IV infusion, N=4"}, "[8]": {"conditions": "same dose level, single dose of 150 mg"}},
  "note": "Entries after “also recorded” stand apart in the source; their conditions may differ. Where two headings read alike, the source gives them in different places.",
  "data": [
    {"smiles": "C[C@H](CCCC(C)(C)O)[C@H]1CC[C@H]2[C@@H]3CC=C4C[C@@H](OS(=O)(=O)O)CC[C@]4(C)[C@H]3CC[C@]12C", "note": "[25HC3S, 5-cholesten-3,25-diol, 3-sulfate]", "values": [
      {"measurement": "drug exposure (AUC and Cmax) versus dose", "setting": "AH patients, 30, 90, 150 mg", "value": "dose proportional"},
      {"measurement": "Time to maximum drug concentrations (Tmax)", "setting": "AH patients, 2 hour IV infusion", "value": "at the end of 2 hour infusion"},
      {"measurement": "Fold Change in PK: AUCinf", "setting": "[1]", "value": "↑ ~5×"},
      {"measurement": "Fold Change in PK: Cmax", "setting": "[1]", "value": "↑ 2×"},
      {"measurement": "Fold Change in PK: T½", "setting": "[1]", "value": "↑ 2×"},
      {"measurement": "Fold Change in PK: CL", "setting": "[2]", "value": "↓ 0.25×"},
      {"measurement": "Fold Change in PK: V", "setting": "[2]", "value": "↓ 0.5×"},
      {"measurement": "V", "setting": "Moderate AH, cohort 1A, 30 mg IV infusion, N=3", "value": "24.8 (1.6) L"},
      {"measurement": "V", "setting": "Moderate AH, cohort 2A, 90 mg IV infusion, N=3", "value": "25.8 (10.5) L"},
      {"measurement": "V", "setting": "Severe AH, cohort 1B, 30 mg IV infusion, N=4", "value": "26.1 (4.9) L"},
      {"measurement": "V", "setting": "Severe AH, cohort 2B, 90 mg IV infusion, N=4", "value": "35.3 (10.8) L"},
      {"measurement": "V", "setting": "Severe AH, cohort 3B, 150 mg IV infusion, N=4", "value": "27.8 (5.9) L"},
      {"measurement": "PK parameters, moderate versus severe AH groups", "value": "uninfluenced by the severity of the disease; also recorded: similar"},
      {"measurement": "PK parameters, moderate versus severe AH groups", "setting": "listed as 25HC3S sodium", "value": "similar"},
      {"measurement": "systemic clearance, fold lower in AH patients compared to healthy subjects", "setting": "for a given dose", "value": "about 5 fold"},
      {"measurement": "decrease of clearance in AH patients compared to healthy subjects", "setting": "healthy subjects from an earlier study", "value": 80, "unit": "%"},
      {"measurement": "half-life", "setting": "intravenous, AH patients, range over groups, read-out: half-life (t1/2)", "value": "4 to 6", "unit": "h"},
      {"measurement": "clearance", "setting": "intravenous, AH patients, read-out: Mean clearance", "value": "83.3 to 117", "unit": "mL/min"},
      {"measurement": "Tmax", "setting": "iv, 30 mg, Moderate AH, cohort 1A, 30 mg IV infusion over 2 h, after Dose 1, N=3", "value": 2.2, "unit": "h"},
      {"measurement": "AUC(0-inf)", "setting": "[3]", "value": 6540, "unit": "ng·h/mL"},
      {"measurement": "Cmax", "setting": "[3]", "value": 1280, "unit": "ng/mL"},
      {"measurement": "clearance", "setting": "iv, 30 mg, Moderate AH, cohort 1A, 30 mg IV infusion, N=3, read-out: CL (converted)", "value": 98.3, "unit": "mL/min"},
      {"measurement": "half-life", "setting": "iv, 30 mg, Moderate AH, cohort 1A, 30 mg IV infusion, N=3, read-out: T½ (converted)", "value": 3.7, "unit": "h"},
      {"measurement": "AUC(0-inf)", "setting": "[4]", "value": 7720, "unit": "ng·h/mL"},
      {"measurement": "Cmax", "setting": "[4]", "value": 1340, "unit": "ng/mL"},
      {"measurement": "Tmax", "setting": "[4]", "value": 1.8, "unit": "h"},
      {"measurement": "clearance", "setting": "iv, 30 mg, Severe AH, cohort 1B, 30 mg IV infusion, N=4, read-out: CL (converted)", "value": 68.3, "unit": "mL/min"},
      {"measurement": "half-life", "setting": "iv, 30 mg, Severe AH, cohort 1B, 30 mg IV infusion, N=4, read-out: T½ (converted)", "value": 1.8, "unit": "h"},
      {"measurement": "AUC(0-inf)", "setting": "[5]", "value": 14300, "unit": "ng·h/mL"},
      {"measurement": "Cmax", "setting": "[5]", "value": 3630, "unit": "ng/mL"},
      {"measurement": "Tmax", "setting": "[5]", "value": 2, "unit": "h"},
      {"measurement": "clearance", "setting": "iv, 90 mg, Moderate AH, cohort 2A, 90 mg IV infusion, N=3, read-out: CL (converted)", "value": 110, "unit": "mL/min"},
      {"measurement": "half-life", "setting": "iv, 90 mg, Moderate AH, cohort 2A, 90 mg IV infusion, N=3, read-out: T½ (converted)", "value": 2.7, "unit": "h"},
      {"measurement": "AUC(0-inf)", "setting": "[6]", "value": 20400, "unit": "ng·h/mL"},
      {"measurement": "Cmax", "setting": "[6]", "value": 3290, "unit": "ng/mL"},
      {"measurement": "Tmax", "setting": "[6]", "value": 2.3, "unit": "h"},
      {"measurement": "clearance", "setting": "iv, 90 mg, Severe AH, cohort 2B, 90 mg IV infusion, N=4, read-out: CL (converted)", "value": 91.7, "unit": "mL/min"},
      {"measurement": "half-life", "setting": "iv, 90 mg, Severe AH, cohort 2B, 90 mg IV infusion, N=4, read-out: T½ (converted)", "value": 5.1, "unit": "h"},
      {"measurement": "AUC(0-inf)", "setting": "[7]", "value": 27100, "unit": "ng·h/mL"},
      {"measurement": "Cmax", "setting": "[7]", "value": 6820, "unit": "ng/mL"},
      {"measurement": "Tmax", "setting": "[7]", "value": 2.1, "unit": "h"},
      {"measurement": "clearance", "setting": "iv, 150 mg, Severe AH, cohort 3B, 150 mg IV infusion, N=4, read-out: CL (converted)", "value": 96.7, "unit": "mL/min"},
      {"measurement": "half-life", "setting": "iv, 150 mg, Severe AH, cohort 3B, 150 mg IV infusion, N=4, read-out: T½ (converted)", "value": 3.4, "unit": "h"},
      {"measurement": "increase in AUC in AH patients compared to healthy subjects", "setting": "[8]", "value": "about 5 fold"},
      {"measurement": "increase in Cmax in AH patients compared to healthy subjects", "setting": "[8]", "value": 2, "unit": "fold"}
    ]}
  ]
}
